Results: patent US20030212105A1, “Novel anti-fertility agent” (priority 2002, published 2003)

Key:
pregnant female rats = details: cited from earlier work
[1] = Solubility in water (preparation of drug solution); type: physicochemical; details: distilled water
female albino rats [2] = experiment: Preovulatory effects of roxatidine acetate in female albino rats; type: in vivo, rat; details: 2.5, 10, 15 & 20 mg/kg for 15 consecutive days before mating; dose group not stated
Procedure: Animals with normal estrus cycle were divided into […] with 10 animals in each group. Group I served as control and received distilled water orally. Animals in Group II, II, IV & V were administered roxatidine acetate at the doses of 2.5, 10, 15, & 20 mg/kg body weight respectively, for 15 consecutive days. During this period daily vaginal smears were taken to observe the regularity of the estrus cycle.
The females in all the groups were then paired with males of proven fertility. Daily vaginal smears were taken until the animals successfully mated. This was indicated by the presence of spermatozoa in the vaginal smears and this was taken as day 1 of pregnancy. On day 10 each animal was laprotomized and the no. of implants/resorption sites and the no. of corpora lutea were counted. The number of litters delivered at the end of the gestation period were 2.

female albino rats [3] = experiment: Anti-implantation studies of roxatidine acetate in female rats (post coital); type: in vivo, rat
Procedure: Roxatidine was screened as a post coital anti-fertility agent on different days of pregnancy i.e. day 1st, days 1st-3rd day 4th i.e. day of ([…] days 1st-5th, days 1st-7th and day 15th-20th i.e. period of organogenesis) post coitum. The aim of the study was to determine the minimum possible dose of drug showing anti implantation activity and the specific days of gestation period when the activity is maximum studies were carried out in order to determine the possible mechanism of action of the drug. Further ELISA was conducted to assess the effects of roxatidine on the serum level of estrogen and progesterone respectively.
Daily vaginal smears of the female albino rats were taken and the regular periodicity of the estrus cycle was checked.
The animals were held, ventral side up and a drop of 0.9% saline was inserted into the vagina with the help of a Pasteur pipette, carefully, without damaging the vaginal wall to avoid false positive smears. The drop of normal saline was aspirated and replaced several times with the vaginal fluid, withdrawn and transferred to a microscopic slide. A coverslip was placed carefully on the smear avoiding the air bubble. The slide was then observed under a compound microscope (magnification-45×) and the stage of estrus cycle was determined.
Female rats in proestrus or estrus stage were housed with mature male rats (in the ratio 3 females:1 male). Each female was examined for the presence of spermatozoa in the early morning. The day on which this sign of mating is seen is taken as day 1 of pregnancy. The female was then separated and caged singly. Roxatidine was administered orally to the animal once daily on specific days of pregnancy at different concentrations.
Pregnant rats were divided into 5 groups of 10 animals each. To group I, which served as control, a constant volume of distilled water was administered orally with the help of a catheter. The drug namely, roxatidine was administered at doses of 2.5, 10, 15 & 20 mg/kg body weight orally, on specific days of pregnancy.
Fifty albino rats were divided into groups of 10 animals each. Group I served as control and received distilled water. Group II to V received Roxatidine acetate at doses of 2.5,10,15 & 20 mg/kg body weight, orally respectively on day 1 postcoital with the help of a catheter.
On day 10 of pregnancy the animal was laprotomized and the number of implants present in both the uterine horns as well as the number of corpora lutea on each ovary was counted. The animals were allowed to complete the gestation period (usually 21-23 days) and the number of litters delivered, if any were counted In this case, 2 litters were delivered.
Fifty albino rats were divided into groups of 10 animals each. Group I served as control and received distilled water. Group II to V received Roxatidine acetate at doses of 2.5,10,15 & 20 mg/kg body weight, orally respectively on day 1-3 postcoital with the help of a catheter.
On day 10 of pregnancy the animal was laprotomized and the number of implants present in both the uterine horns as well as the number of corpora lutea on each ovary was counted.
Fifty albino rats were divided into groups of 10 animals each. Group I served as control and received distilled water. Group II to V received Roxatidine acetate at doses of 2.5,10,15 & 20 mg/kg body weight, orally respectively on day 4 postcoital with the help of a catheter.
On day 10 of pregnancy the animal was laprotomized and the number of implants present in both the uterine horns as well as the number of corpora lutea on each ovary was counted. The animals were allowed to complete the gestation period (usually 21-23 days) at the end of which 3 litters were found.
Fifty albino rats were divided into groups of 10 animals each. Group I served as control and received distilled water. Group II to V received Roxatidine acetate at doses of 2.5, 10, 15 & 20 mg/kg body weight, orally respectively on day 1-7 postcoital with the help of a catheter. […]

CN/C(=N/CCSCc1nc[nH]c1C)NC#N [cimetidine]
anti-implantation effects (pregnant female rats; oral, daily for 1-7 days post coitum, pregnant female rats): exhibited anti-implantation effects | oestrogenic/anti-oestrogenic activity (pregnant female rats; rats): did not possess oestrogenic/anti-oestrogenic activity

CC(=O)OCC(=O)NCCCOc1cccc(CN2CCCCC2)c1 [Roxatidine acetate]
solubility in water [1]: readily and completely soluble in water | number of litters delivered at the end of the gestation period (female albino rats [2]): 2 | number of litters found at end of gestation period (female albino rats [3]; 2.5, 10, 15 & 20 mg/kg orally on day 1-3 postcoital, gestation 21-23 days): no litters were found | number of litters found at end of gestation period (female albino rats [3]; 2.5, 10, 15 & 20 mg/kg orally on day 1-5 postcoital, gestation 21-23 days): no litters were found | number of litters found at end of gestation period (female albino rats [3]; 2.5, 10, 15 & 20 mg/kg orally on day 1-7 postcoital, gestation 21-23 days): no litters were found | number of litters delivered at end of gestation period (female albino rats [3]; 2.5, 10, 15 & 20 mg/kg orally on day 1 postcoital, gestation 21-23 days, dose group not stated): 2 | number of litters found at end of gestation period (female albino rats [3]; 2.5, 10, 15 & 20 mg/kg orally on day 4 postcoital, gestation 21-23 days, dose group not stated): 3 | number of litters seen at end of gestation period (female albino rats [3]; 2.5, 10, 15 & 20 mg/kg orally on day 15-20 postcoital, gestation 21-23 days, dose group not stated): 2 | inhibition of implantation (female albino rats [3]; administered in animal models): effective in inhibiting implantation
